Measured values published in US20080138461A1, “Lactobacillus buchneri strain LN1297 and its use to improve aerobic stability of silage” (Pioneer Hi-Bred International, Inc., priority 2006, published 2008).

Assay: Aerobic stability of grass silage (method of Honig), PVC silos
Parameters: species or system ryegrass
Protocol: Second cut ryegrass was harvested at PLNC. The grass was determined to have an approximate dry matter of 35%.
Inoculation: Individual strains were supplied as fresh grown overnight culture. Cultures were adjusted to a standard concentration of 5.0×10^7 CFU/mL and applied using a syringe at a rate of 2.2 mL/kg of forage. The application rate for all strains was 1.1×10^5 CFU/g forage. Propionic acid (88%) was applied at a rate of 4.4 mL/kg fresh forage.
PVC Silos: PVC silos were filled at a packing density of 0.288 kg DM/silo (100 kg DM/m^3); approximately 0.82-0.95 kg/silo. Silos were air infused for 24 hours on days 28 and 42, and opened after 50-60 days of ensiling.
Aerobic Stability: The method of Honig (Proc. Of the Eurobac. Conf., P. Lingvall and S. Lindgren (ed.) (12-16 Aug. 1986) Swed. Univ. of Agric. Sci. Grass and Forage Report No. 3-1990. Pp. 76-81. Uppsala, Sweden) was used for measuring aerobic stability (see Table 1). ROT is defined as the time, in hours, for the silage to heat 1.7° C. after exposure to air. Cumm_DD is the integral value of the area between the time ROT is attained and the end of the experiment. Aerobic dry matter loss (% dry matter) was determined relating the increase in temperature and the time to energy losses occurring in the silage.

[1] = average across replicate studies A, B, C

In the case of `CCC(=O)O` [Propionic Acid, Propionic acid], the “Aerobic deterioration versus control grass silages” value is reported as “significantly less aerobic deterioration”, the “Aerobic Dry Matter Loss, Avg.” value [1] is reported as 0.43 % dry matter and the “ROT (time for the silage to heat 1.7° C. after exposure to air), Avg.” value [1] is reported as 127 h. For the same compound, the “Aerobic Dry Matter Loss, replicate study A” value (replicate A) was 0.29 % dry matter, the “ROT (time for the silage to heat 1.7° C. after exposure to air), replicate study A” value (replicate A) was 137 h and the “Aerobic Dry Matter Loss, replicate study B” value (replicate B) was 0 % dry matter. The “ROT (time for the silage to heat 1.7° C. after exposure to air), replicate study B” value (replicate B) was 160 h, the “Aerobic Dry Matter Loss, replicate study C” value (replicate C) was 1.01 % dry matter and the “ROT (time for the silage to heat 1.7° C. after exposure to air), replicate study C” value (replicate C) was 86 h. The “Improvement of aerobic stability over the control” value (versus control) was 96 h.
